Columns and labels:
T1L σ1long = biological target: T1, T1L σ1long (Mammalian orthoreovirus 1 Lang, UniProt P04506); experiment: X-ray crystal structure ([…] Å); also STD NMR; type: binding; conditions: crystal soak with 20 mM glycan; same site as GM2 glycan; STD NMR pH 7.4, 283 K
T1 construct: gene S1; residues 261-470, three C-terminal beta-spirals plus head; E. coli; trimeric GCN4 zipper and His6-tag removed by trypsin (kept for glycan array); trimer

[1] = biological target: the molecule itself; experiment: crystal structure; crystals of cleaved σ1_(long) grown in 0.1 M Na cacodylate (pH 6.0–6.6), 1.2–1.5 M (NH4)2SO4 at 4°C, soaked with 20 mM GM2 or GM3 oligosaccharide; space group P3_(2)21; 3.6 Å (GM2) and 3.5 Å (GM3)

CC(=O)N[C@H]1[C@H]([C@H](O)[C@H](O)CO)O[C@@](O[C@H]2[C@@H](O)[C@@H](CO)O[C@@H](O[C@H]3[C@H](O)[C@@H](O)C(O)O[C@@H]3CO)[C@@H]2O)(C(=O)O)C[C@@H]1O (some centres unmarked) [GM3 glycan]
X-ray crystal structure (3.5 Å); also STD NMR (T1L σ1long): 4GU4 (T1L σ1-GM3 glycan complex)

B1: reovirus type 1 Lang (T1L) σ1, construct σ1_(long) (amino acids 261–470), GCN4 domain and His6-tag removed (domain or fragment)
chain: LESAKIDSVLPPLTVREASGVRTLSFGYDTSDFTIINSVLSLRSRLTLPTYRYPLELDTANNRVQVADRFGMRTGTWTGQLQYQHPQLSWRANVTLNLMKVDDWLVLSFSQMTTNSIMADGKFVINFVSGLSSGWQTGDTEPSSTIDPLSTTFAAVQFLNNGQRIDAFRIMGVSEWTDGELEIKNYGGTYTGHTQVYWAPWTIMYPCNVR
notes: Made as His6-GCN4(trimeric)-σ1(261–470) in pQE-80L; Crystals were soaked with GM2 or GM3 glycan; also called cleaved σ1_(long); σ1 attachment protein; not shown: His6, N-terminal, cleaved; GCN4 trimeric leucine zipper, N-terminal, cleaved
stoichiometry N [1]: 3

Source: PMC3516570, “The GM2 Glycan Serves as a Functional Coreceptor for Serotype 1 Reovirus” (PLoS Pathogens, 2012)
